Measured values published in US6906068B1, “Substituted polycyclic aryl and heteroaryl 1,2,4 - triazinones useful as anticoagulants” (Pharmacia Corporation, priority 1999, dated 2005).

Assays:
Assay type in all cases: biochemical
[1] = biological target: T1, TF-VIIa (recombinant soluble tissue factor and recombinant human factor VIIa) (Homo sapiens, UniProt P08709); assay: TF-VIIa Assay
T1 construct: conversion of coagulation factor VII to VIIa by Xa; purchased American Diagnostica, Greenwich Conn; host or cells: factor VIIa purchased; soluble TF made in house in E. coli
T1 sequence (P08709 213-466 limits assumed): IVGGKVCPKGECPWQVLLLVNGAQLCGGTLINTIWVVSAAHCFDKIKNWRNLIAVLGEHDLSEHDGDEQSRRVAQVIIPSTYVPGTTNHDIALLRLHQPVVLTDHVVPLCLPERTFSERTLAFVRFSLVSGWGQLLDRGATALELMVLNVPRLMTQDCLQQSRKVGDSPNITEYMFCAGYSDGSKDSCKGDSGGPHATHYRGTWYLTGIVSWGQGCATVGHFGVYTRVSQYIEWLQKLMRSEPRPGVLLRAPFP
T1 sequence (P08709 61-212 partner limits assumed): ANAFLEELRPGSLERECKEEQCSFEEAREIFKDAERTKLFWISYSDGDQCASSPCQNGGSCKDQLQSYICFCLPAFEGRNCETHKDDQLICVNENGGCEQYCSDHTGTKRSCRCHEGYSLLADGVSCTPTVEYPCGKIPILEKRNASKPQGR
T1 sequence (P13726 33-251 partner limits assumed): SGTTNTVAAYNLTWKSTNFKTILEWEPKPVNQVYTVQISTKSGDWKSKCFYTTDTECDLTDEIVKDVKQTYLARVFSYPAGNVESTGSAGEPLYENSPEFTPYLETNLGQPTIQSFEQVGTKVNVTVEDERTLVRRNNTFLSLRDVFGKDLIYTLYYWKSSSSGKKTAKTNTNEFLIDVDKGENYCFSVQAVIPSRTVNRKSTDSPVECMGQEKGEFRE
Procedure: In this assy 100 nM recombinant soluble tissue factor and 2 nM recombinant human factor VIIa are added to a 96-well assay plate containing 0.4 mM of the substrate, N-Methylsulfonyl-D-phe-gly-arg-p-nitroaniline and either inhibitor or buffer (5 mM CaCl2, 50 mM Tris-HCl, pH 8.0, 100 mM NaCl, 0.1% BSA). The reaction, in a final volume of 100 ul is measured immediately at 405 nm to determine background absorbance. The plate is incubated at room temperature for 60 min, at which time the rate of hydrolysis of the substrate is measured by monitoring the reaction at 405 nm for the release of p-nitroaniline. Percent inhibition of TF-VIIa activity is calculated from OD405 nm value from the experimental and control sample.
(§1) Recombinant soluble TF, consisting of amino acids 1-219 of the mature protein sequence was expressed in E. coli and purified using a Mono Q Sepharose FPLC. Recombinant human VIIa was purchased from American Diagnostica, Greenwich Conn. and chromogenic substrate N-Methylsulfonyl-D-phe-gly-arg-p-nitroaniline was prepared by American Peptide Company, Inc., Sunnyvale, Calif. Factor Xa was obtained from Enzyme Research Laboratories, South Bend Ind., thrombin from Calbiochem, La Jolla, Calif., and trypsin and L-BAPNA from Sigma, St. Louis Mo. The chromogenic substrates S-2765 and S-2238 were purchased from Chromog nix, Sweden.

[2] = biological target: T2, trypsin, type IX from porcine pancreas (Sus scrofa, UniProt P00761); assay: Trypsin Assay; details: read-out: Trpysin II IC50
T2 construct: purchased Sigma, St. Louis Mo. type IX; host or cells: porcine pancreas
T2 sequence (P00761 9-231): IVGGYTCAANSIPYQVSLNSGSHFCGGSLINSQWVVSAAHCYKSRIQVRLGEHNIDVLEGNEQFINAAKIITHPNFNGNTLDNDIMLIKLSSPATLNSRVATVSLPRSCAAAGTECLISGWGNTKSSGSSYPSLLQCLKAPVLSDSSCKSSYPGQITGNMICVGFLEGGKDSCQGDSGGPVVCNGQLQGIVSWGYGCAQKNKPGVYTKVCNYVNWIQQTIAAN
Procedure: 5 ug/ml trypsin, type IX from porcine pancreas and 0.375 mM N-α-Benzoyl-L-arginine-p-nitroanilide (L-BAPNA) are added to a 96-well assay plate containing either inhibitor or buffer (50 mM Tris-HCl, pH 8.0, 100 mM NaCl, 0.1% BSA). The reactions, in a final volume of 100 ul are measured immediately at 405 nm to determine background absorbance. The plate is incubated at room temperature for 60 min, at which time the rate of hydrolysis of the substrate is measured by monitoring the reaction at 405 nm for the release of p-nitroaniline. Percent inhibition of trypsin activity is calculated from OD405 nm value from the experimental and control sample.
as §1

human thrombin = human thrombin (Homo sapiens, UniProt P00734); assay: Thrombin Assay; details: @ 30 uM
human factor Xa = biological target: T3, human factor Xa (Homo sapiens, UniProt P00742); assay: Xa Assay; details: @ 30 uM
T3 construct: purchased Enzyme Research Laboratories, South Bend Ind
T3 sequence (P00742 235-488 limits assumed): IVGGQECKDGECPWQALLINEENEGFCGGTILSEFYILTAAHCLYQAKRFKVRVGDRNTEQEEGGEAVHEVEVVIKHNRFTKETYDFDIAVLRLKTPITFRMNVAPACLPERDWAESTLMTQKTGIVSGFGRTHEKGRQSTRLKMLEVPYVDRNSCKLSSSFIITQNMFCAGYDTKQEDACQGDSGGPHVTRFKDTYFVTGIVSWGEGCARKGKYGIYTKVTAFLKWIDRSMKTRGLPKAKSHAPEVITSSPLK
T3 sequence (P00742 41-179 partner limits assumed): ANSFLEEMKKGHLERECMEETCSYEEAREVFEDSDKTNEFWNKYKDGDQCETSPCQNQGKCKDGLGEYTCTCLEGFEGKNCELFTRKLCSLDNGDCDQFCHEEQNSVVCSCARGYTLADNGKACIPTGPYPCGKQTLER
Procedure: 0.3 nM human factor Xa and 0.15 mM N-α-Benzyloxycarbonyl-D-arginyl-L-glycyl-L-arginine-p-nitroaniline-dihydrochloride (S-2765) are added to a 96-well assay plate containing either inhibitor or buffer (50 mM Tris-HCl, pH 8.0, 100 mM NaCl, 0.1% BSA). The reaction, in a final volume of 100 ul is measured immediately at 405 nm to determine background absorbance. The plate is incubated at room temperature for 60 min, at which time the rate of hydrolysis of the substrate is measured by monitoring the ieaction at 405 nm for the release of p-nitroaniline. Percent inhibition of Xa activity is calculated from OD405 nm value from the experimental and control sample.
as §1

| IC50 [1] | IC50 [2] | Factor Xa percent inhibition (human factor Xa) | Structure (SMILES) | Thrombin II percent inhibition (human thrombin) |
| --- | --- | --- | --- | --- |
| > 30 µM | > 30 µM |  | N=C(N)c1cccc(CNC(=O)Cn2c(-c3ccccc3)ncc(NS(=O)(=O)Cc3ccccc3)c2=O)c1 [Example 2] |  |
|  |  | 33% @ 30 uM | CC(C)Nc1cnc(-c2cccnc2)n(CC(=O)NCc2ccc(C(=N)N)cc2)c1=O [Example 7] |  |
|  |  | 15% @ 30 uM | N=C(N)c1ccc(CNC(=O)Cn2c(-c3cccc(N)c3)ncc(NC3CCC3)c2=O)cc1 [Example 8] | 42% @ 30 uM |

| Structure (SMILES) | IC50 [1] | IC50 [2] | Factor Xa percent inhibition (human factor Xa) | Thrombin II percent inhibition (human thrombin) |
| --- | --- | --- | --- | --- |
| CC(C)Nc1cnc(-c2cccc(N)c2)n(CC(=O)NCc2ccc(C(=N)N)cc2)c1=O [Example 6] |  |  | 33% @ 30 uM | 43% @ 30 um |
